Assay results: patent US20230404963A1, “COMBINATIONS OF METAP2 INHIBITORS AND CD4/6 INHIBITORS FOR THE TREATMENT OF CANCER” (SynDevRx, Inc., priority 2020, published 2023)

Test system: MCF-7 tumors
Test: Tumor Growth Inhibition in mice bearing MCF-7 tumors treated with Compound 1 and/or ribociclib
Format: in vivo
Protocol: In the following experiment, mice bearing MCF-7 tumors were treated with either a vehicle control, Compound 1 alone, ribociclib alone, or with a combination of Compound 1 and ribociclib. MCF-7 were cultured in DMEM supplemented with 10% FBS. On the day of implantation, cells were washed 1× with phosphate-buffered saline (PBS). Following washing, cells were pelleted (5 min @ 1000 rpm, RT) and then counted with a hemocytometer. A cell concentration of 5×10^6 per mouse was re-suspended in an appropriate amount of PBS and 1:1 Matrigel. The suspension was kept on ice until implantation. Forty-eight hours prior to cell implantation, a 17-β estradiol pellet (0.36 mg 60-day slow release pellet) was be implanted subcutaneously between the scapulae of each Female Nu/j mouse. […] Once anesthetized, the mice were positioned ventral side up and anesthesia maintained through a fitted nose cone. The MCF-7 cell suspension was injected into the mammary fat pad at a volume of 100 μl containing 5×10^6 cells per mouse. Beginning 5 days post cell implantation, tumors were measured two times weekly (length×width) using a wireless digital calipers in conjunction with UWAVE-R to record measurements. […] The first day of treatment was designated “Day 1”. The mice were dosed either subcutaneously (SC), orally (PO), or by both dose routes, as put forth in the experimental designed summarized in Table 3. Doses were calculated by individual body weights. [table] The first group of mice (Group #1) were administered the vehicle control by oral administration once a day (QD). […] The fifth group of mice (Group #5) were administered Ribociclib at a dose of 35 mg/kg by oral administration once a day (QD). The sixth group of mice (Group #6) were administered Ribociclib at a dose of 70 mg/kg by oral administration once a day (QD). Twice weekly body weights and tumor measurements were recorded for the duration of the study. […] Upon euthanasia, a maximum volume terminal blood sample was obtained via cardiac puncture and split 200 μL in a K2EDTA MiniCollect tube for plasma separation and 420 μL in to a MiniCollect serum separator tube for half the mice for Clinical Chemistry analysis. For the other half of the mice, >200 μL of blood was collected in to K2EDTA MiniCollect tubes (LTT) for CBC analysis. The MiniCollect blood tubes for both plasma and serum were centrifuged at 8000 rpm for 5 minutes. The plasma was retained for biomarker analysis at −80° C., the serum and whole blood (LTT) were further analyzed. Additionally, tumor from the mice were dissected, weighed, and split into two pieces. Half of the tumor was placed into buffered formalin and stored at room temperature. Half of the tumor was snap-frozen in liquid N2, and stored at −80° C. […]

CN(C)C(=O)c1cc2cnc(Nc3ccc(N4CCNCC4)cn3)nc2n1C1CCCC1 [Ribociclib, ribociclib]
TGI % (day 14, Group 5: Ribociclib 35 mg/kg PO QD): 57%
TGI % (day 14, Group 6: Ribociclib 70 mg/kg PO QD): 70%
TGI % (day 18, Group 5: Ribociclib 35 mg/kg PO QD (10 times the dose on day 16)): 60%
TGI % (day 18, Group 6: Ribociclib 70 mg/kg PO QD (10 times the dose on day 16)): 70%
